≈ marks a conversion by molar mass, not a printed value. Where two headings read alike, the source gives them in different places.
Key:
[1] = test system: Sarcina lutea; test: Minimum inhibitory concentration, serial dilution method; assay type: cell-based; conditions: Micrococcus luteus; Sarcina lutea; 24 hours, 37° C; read-out: Minimum Inhibitory Concentration
[2] = test system: Staphylococcus aureus 209P; conditions: 7th day, 10 mice per group
[3] = test system: Staphylococcus aureus Terajima; test: Minimum inhibitory concentration, serial dilution method; assay type: cell-based; conditions: read-out: Minimum Inhibitory Concentration
[4] = test system: Streptococcus pyogenes D-58; test: as above; assay type: cell-based; conditions: D58; Streptococcus pyogenes D-58; 24 hours, 37° C; read-out: Minimum Inhibitory Concentration
[5] = test system: Diplococcus pneumoniae Type I; test: as above; assay type: cell-based; conditions: Streptococcus pneumoniae; Diplococcus pneumoniae Type I; 24 hours, 37° C; read-out: Minimum Inhibitory Concentration
[6] = test system: Corynebacterium diphtheriae Type intermedius; test: as above; assay type: cell-based; conditions: Corynebacterium diphtheriae Type intermedius; 24 hours, 37° C; read-out: Minimum Inhibitory Concentration
[7] = test system: Streptococcus hemolyticus D-90; test: as above; assay type: cell-based; conditions: Streptococcus pyogenes, read-out: Minimum Inhibitory Concentration
[8] = test system: Bacillus subtilis ATCC 6633; test: as above; assay type: cell-based; conditions: read-out: Minimum Inhibitory Concentration
[9] = test system: Bacillus anthracis No. 119; test: microbe, parasite or virus in culture; assay type: cell-based; conditions: NO.119, 24 h, read-out: Minimum Inhibitory Concentration
[10] = test system: Streptococcus faecalis ATCC 8043; test: Minimum inhibitory concentration, serial dilution method; assay type: cell-based; conditions: Enterococcus faecalis, read-out: Minimum Inhibitory Concentration
[11] = test system: Corynebacterium diphtheriae Type gravis; test: as above; assay type: cell-based; conditions: Corynebacterium diphtheriae Type gravis; 24 hours, 37° C; read-out: Minimum Inhibitory Concentration
[12] = test system: Staphylococcus albus 1200A; test: as above; assay type: cell-based; conditions: read-out: Minimum Inhibitory Concentration
[13] = test system: Diplococcus pneumoniae Type III; test: as above; assay type: cell-based; conditions: Streptococcus pneumoniae; Diplococcus pneumoniae Type III; 24 hours, 37° C; read-out: Minimum Inhibitory Concentration
[14] = test system: Streptococcus hemolyticus Cook; test: as above; assay type: cell-based; conditions: Streptococcus pyogenes; Streptococcus hemolyticus Cook; 24 hours, 37° C; read-out: Minimum Inhibitory Concentration
[15] = test system: Staphylococcus aureus Smith; test: as above; assay type: cell-based; conditions: read-out: Minimum Inhibitory Concentration
[16] = test system: Bacillus subtilis PCI 219; test: as above; assay type: cell-based; conditions: PCI219; Bacillus subtilis PCI 219; 24 hours, 37° C; read-out: Minimum Inhibitory Concentration
[17] = test system: Staphylococcus aureus 209P; test: Minimum inhibitory concentration, serial dilution method, Brain Heart Infusion broth; assay type: cell-based; conditions: read-out: Minimum Inhibitory Concentration
[18] = ATCC6633, Bacillus subtilis ATCC 6633, 24 hours, 37° C
[19] = ATCC8043, Streptococcus faecalis ATCC 8043, 24 hours, 37° C
[20] = Staphylococcus aureus Smith, 24 hours, 37° C
[21] = Staphylococcus aureus, 209P, 24 h
[22] = Bacillus subtilis, ATCC6633, 24 h
[23] = Staphylococcus albus 1200A, 24 hours, 37° C
[24] = Staphylococcus aureus Terajima, 24 hours, 37° C
[25] = D90, Streptococcus hemolyticus D-90, 24 hours, 37° C
[26] = Staphylococcus aureus 209P, 24 hours, 37° C

Row | SMILES | MIC [1] | Rate of surviving mice in each group of mice ([2]; 100 mg/kg oral) | Rate of surviving mice in each group of mice ([2]; 200 mg/kg oral) | MIC ([3]; Staphylococcus aureus, 24 h) | MIC [4] | MIC [5] | MIC [6] | MIC [8, 18] | MIC [9] | MIC [10, 19] | MIC [11] | MIC [13] | MIC [14] | MIC [15, 20] | MIC [16] | MIC [17, 21] | MIC [12, 23] | MIC [3, 24] | MIC [7, 25] | MIC [17, 26] | further results
1 | CCC(=O)OC1CC(=O)OC(C)CC=CC=CC(OC(C)=O)C(C)CC(CC=O)C(OC2OC(C)C(OC3CC(C)(O)C(OC(=O)CC)C(C)O3)C(N(C)C)C2OC(C)=O)C1OC (stereo not drawn) [9,2'-di-acetyl SF-837 substance, reference compound] | 0.19 µg/mL (≈ 0.212 µM) | 0/10 | 6/10 | 1.56 µg/mL (≈ 1.74 µM) | 0.19 µg/mL (≈ 0.212 µM) | 0.09 µg/mL (≈ 0.1 µM) | 0.19 µg/mL (≈ 0.212 µM) | 3.12 µg/mL (≈ 3.47 µM) | 1.56 µg/mL (≈ 1.74 µM) | 3.12 µg/mL (≈ 3.47 µM) | 0.39 µg/mL (≈ 0.434 µM) | 0.09 µg/mL (≈ 0.1 µM) | 0.19 µg/mL (≈ 0.212 µM) | 0.39 µg/mL (≈ 0.434 µM) | 0.78 µg/mL (≈ 0.869 µM) | 1.56 µg/mL (≈ 1.74 µM) |  |  |  |  | MIC ([7]; D90, 24 h): 1.56 µg/mL (≈ 1.74 µM); MIC ([12]; Staphylococcus, 1200A, 24 h): 1.56 µg/mL (≈ 1.74 µM)
2 | CCC(=O)OC1CC(=O)OC(C)CC=CC=CC(OC(C)=O)C(C)CC(CC=O)C(OC2OC(C)C(OC3CC(C)(O)C(OC(=O)CC)C(C)O3)C(N(C)C)C2O)C1OC (stereo not drawn) [9-mono-acetyl SF-837 substance, reference compound] | 0.09 µg/mL (≈ 0.105 µM) | 5/10 | 8/10 | 1.56 µg/mL (≈ 1.82 µM) | 0.39 µg/mL (≈ 0.456 µM) | 0.04 µg/mL (≈ 0.0467 µM) | 0.19 µg/mL (≈ 0.222 µM) |  | 1.56 µg/mL (≈ 1.82 µM) |  | 0.19 µg/mL (≈ 0.222 µM) | 0.04 µg/mL (≈ 0.0467 µM) | 0.39 µg/mL (≈ 0.456 µM) | 0.78 µg/mL (≈ 0.911 µM) | 0.78 µg/mL (≈ 0.911 µM) | 1.56 µg/mL (≈ 1.82 µM) | 0.78 µg/mL (≈ 0.911 µM) |  |  |  | MIC ([7]; D90, 24 h): 1.56 µg/mL (≈ 1.82 µM); MIC [8, 22]: 1.56 µg/mL (≈ 1.82 µM); MIC ([10]; ATCC8043, 24 h): 1.56 µg/mL (≈ 1.82 µM)
3 | CCC(=O)OC1CC(=O)OC(C)CC=CC=CC(OC(C)=O)C(C)CC(CC=O)C(OC2OC(C)C(OC3CC(C)(OC(=O)CC)C(OC(C)=O)C(C)O3)C(N(C)C)C2O)C1OC (stereo not drawn) [Compound No. 1] | 0.09 µg/mL (≈ 0.1 µM) | 6/10 | 10/10 |  | 0.19 µg/mL (≈ 0.212 µM) | 0.09 µg/mL (≈ 0.1 µM) | 0.19 µg/mL (≈ 0.212 µM) | 1.56 µg/mL (≈ 1.74 µM) | 0.78 µg/mL (≈ 0.869 µM) | 0.78 µg/mL (≈ 0.869 µM) | 0.19 µg/mL (≈ 0.212 µM) | 0.09 µg/mL (≈ 0.1 µM) | 0.19 µg/mL (≈ 0.212 µM) | 0.39 µg/mL (≈ 0.434 µM) | 0.78 µg/mL (≈ 0.869 µM) |  | 1.56 µg/mL (≈ 1.74 µM) | 3.12 µg/mL (≈ 3.47 µM) | 0.78 µg/mL (≈ 0.869 µM) | 1.56 µg/mL (≈ 1.74 µM) | 
4 | CCC(=O)OC1CC(=O)OC(C)CC=CC=CC(OC(C)=O)C(C)CC(CC=O)C(OC2OC(C)C(OC3CC(C)(OC(C)=O)C(OC(=O)CC)C(C)O3)C(N(C)C)C2O)C1OC (stereo not drawn) [Compound No. 2] | 0.09 µg/mL (≈ 0.1 µM) | 8/10 | 10/10 |  | 0.19 µg/mL (≈ 0.212 µM) | 0.09 µg/mL (≈ 0.1 µM) | 0.19 µg/mL (≈ 0.212 µM) | 1.56 µg/mL (≈ 1.74 µM) | 0.78 µg/mL (≈ 0.869 µM) | 0.78 µg/mL (≈ 0.869 µM) | 0.19 µg/mL (≈ 0.212 µM) | 0.09 µg/mL (≈ 0.1 µM) | 0.19 µg/mL (≈ 0.212 µM) | 0.39 µg/mL (≈ 0.434 µM) | 0.78 µg/mL (≈ 0.869 µM) |  | 1.56 µg/mL (≈ 1.74 µM) | 3.12 µg/mL (≈ 3.47 µM) | 0.78 µg/mL (≈ 0.869 µM) | 1.56 µg/mL (≈ 1.74 µM) | 
5 | CCC(=O)OC1CC(=O)OC(C)CC=CC=CC(OC(C)=O)C(C)CC(CC=O)C(OC2OC(C)C(OC3CC(C)(OC(=O)CC)C(OC(=O)C(C)C)C(C)O3)C(N(C)C)C2O)C1OC (stereo not drawn) [Compound No. 3] | 0.09 µg/mL (≈ 0.0972 µM) | 4/10 | 10/10 |  | 0.19 µg/mL (≈ 0.205 µM) | 0.09 µg/mL (≈ 0.0972 µM) | 0.19 µg/mL (≈ 0.205 µM) |  | 1.56 µg/mL (≈ 1.68 µM) | 0.78 µg/mL (≈ 0.842 µM) | 0.19 µg/mL (≈ 0.205 µM) | 0.09 µg/mL (≈ 0.0972 µM) | 1.9 µg/mL (≈ 2.05 µM) | 0.39 µg/mL (≈ 0.421 µM) | 0.78 µg/mL (≈ 0.842 µM) | 1.56 µg/mL (≈ 1.68 µM) |  | 3.12 µg/mL (≈ 3.37 µM) | 0.78 µg/mL (≈ 0.842 µM) |  | MIC [8, 22]: 1.56 µg/mL (≈ 1.68 µM); MIC ([12]; Staphylococcus, 1200A, 24 h): 1.56 µg/mL (≈ 1.68 µM)
6 | CCC(=O)OC1CC(=O)OC(C)CC=CC=CC(OC(C)=O)C(C)CC(CC=O)C(OC2OC(C)C(OC3CC(C)(OC(=O)CC)C(OC(=O)CC(C)C)C(C)O3)C(N(C)C)C2O)C1OC (stereo not drawn) [Compound No. 4] | 0.09 µg/mL (≈ 0.0957 µM) | 0/10 | 3/10 | 1.56 µg/mL (≈ 1.66 µM) | 0.19 µg/mL (≈ 0.202 µM) | 0.39 µg/mL (≈ 0.415 µM) | 0.19 µg/mL (≈ 0.202 µM) |  | 1.56 µg/mL (≈ 1.66 µM) | 0.78 µg/mL (≈ 0.83 µM) | 0.19 µg/mL (≈ 0.202 µM) | 0.19 µg/mL (≈ 0.202 µM) | 0.39 µg/mL (≈ 0.415 µM) |  | 0.78 µg/mL (≈ 0.83 µM) | 1.56 µg/mL (≈ 1.66 µM) |  |  | 0.19 µg/mL (≈ 0.202 µM) |  | MIC [8, 22]: 1.56 µg/mL (≈ 1.66 µM); MIC ([12]; Staphylococcus, 1200A, 24 h): 1.56 µg/mL (≈ 1.66 µM); MIC ([15]; Staphylococcus aureus, 24 h): 1.56 µg/mL (≈ 1.66 µM)
7 | CCC(=O)OC1C=CC=CCC(C)OC(=O)CC(OC(=O)CC)C(OC)C(OC2OC(C)C(OC3CC(C)(OC(=O)CC)C(OC(C)=O)C(C)O3)C(N(C)C)C2O)C(CC=O)CC1C (stereo not drawn) [Compound No. 5] | 0.09 µg/mL (≈ 0.0987 µM) | 4/10 | 8/10 |  | 0.19 µg/mL (≈ 0.208 µM) | 0.09 µg/mL (≈ 0.0987 µM) | 0.19 µg/mL (≈ 0.208 µM) | 1.56 µg/mL (≈ 1.71 µM) | 0.78 µg/mL (≈ 0.855 µM) | 0.78 µg/mL (≈ 0.855 µM) | 0.19 µg/mL (≈ 0.208 µM) | 0.09 µg/mL (≈ 0.0987 µM) | 0.39 µg/mL (≈ 0.428 µM) | 0.78 µg/mL (≈ 0.855 µM) | 1.56 µg/mL (≈ 1.71 µM) |  | 1.56 µg/mL (≈ 1.71 µM) | 3.12 µg/mL (≈ 3.42 µM) | 0.78 µg/mL (≈ 0.855 µM) | 1.56 µg/mL (≈ 1.71 µM) | 
8 | CCC(=O)OC1CC(=O)OC(C)CC=CC=CC(OC(C)=O)C(C)CC(CC=O)C(OC2OC(C)C(OC3CC(C)(OC(=O)CC)C(OC(=O)CC)C(C)O3)C(N(C)C)C2O)C1OC (stereo not drawn) [Compound No. 6] | 0.09 µg/mL (≈ 0.0987 µM) | 6/10 | 10/10 |  | 0.19 µg/mL (≈ 0.208 µM) | 0.09 µg/mL (≈ 0.0987 µM) | 0.19 µg/mL (≈ 0.208 µM) | 1.56 µg/mL (≈ 1.71 µM) | 0.78 µg/mL (≈ 0.855 µM) | 0.78 µg/mL (≈ 0.855 µM) | 0.19 µg/mL (≈ 0.208 µM) | 0.09 µg/mL (≈ 0.0987 µM) | 0.19 µg/mL (≈ 0.208 µM) | 0.39 µg/mL (≈ 0.428 µM) | 0.78 µg/mL (≈ 0.855 µM) |  | 1.56 µg/mL (≈ 1.71 µM) | 3.12 µg/mL (≈ 3.42 µM) | 0.78 µg/mL (≈ 0.855 µM) | 1.56 µg/mL (≈ 1.71 µM) | 

Source: patent US4017607A
